Data: patent US10709745B2, “Tropic cell based virotherapy for the treatment of cancer” (priority 2013, dated 2020)

Tests used:
[1] = tested on: GBM43 glioma xenografts; test: Intracranial GBM43 xenograft: TMZ, XRT and CRAd-S-pk7-loaded NSCs; format: in vivo, nude mice
Method: FIGS. 43A, 43B and 43C illustrate the in vivo efficacy of CRAd-Survivin-pk7 (CRAd-S-pk7)-loaded NSCs and XRT-TMZ treatment against human-derived glioma xenografts according to one embodiment. Intracranial GBM43 (3.5×10^5 cells per animal) was established, and the animals were treated for 5 consecutive days beginning on day 6 after tumor cell implantation. (FIG. 43A): Survival of animals treated with escalating doses of intraperitoneally administered TMZ (0, 5, 10, or 30 mg/kg). (FIG. 43B): Survival of animals treated with XRT (2 Gy) or a combination of XRT (2 Gy) and TMZ (2.5, 5, 10, or 30 mg/kg). (FIG. 43C): Survival of animals treated with the optimized dose of 2 Gy XRT and 5 mg/kg TMZ in addition to 5×10^5 or 3×10^6 NSCs loaded with 50 infectious units of CRAd-S-pk7. […] Abbreviations: ND, not determined; ns, no significance; NSC, neural stem cell; TMZ, temozolomide; XRT, radiation therapy.
FIGS. 45A and 45B illustrate the scheduling of CRAd-Survivin-pk7 (CRAd-S-pk7)-loaded NSC administration in vivo according to one embodiment. (FIG. 45A): Survival of animals treated with both therapeutic scheduling protocols. […] For each treatment group, five images were taken using the […]20 objective, and the number of positive cells was quantified per field of view (right). *, p<0.05; **, p<0.01; ***, p<0.001. […]

[2] = tested on: GBM43; test: TMZ IC50 with simultaneous XRT; format: cell-based; details: Homo sapiens; treated with XRT (2 Gy) simultaneously
Method: (§1) For all studies, the cells and mice received XRT in accordance with the University of Chicago's radiation safety guidelines and protocols. All cells received a single dose of 2 Gy XRT. For animal studies, 10 Gy fractioned dose radiotherapy (2 Gy for 5 consecutive days) was used. The animals were irradiated with a lead cover shielding their entire body, with only their heads exposed. […] For in vivo studies, the mice received 2.5, 5, 10, or 30 mg/kg TMZ via intraperitoneal injection.

[3] = tested on: HB1.F3-CD; test: TMZ IC50 with simultaneous XRT; format: cell-based; details: Homo sapiens; treated with XRT (2 Gy) simultaneously
Method: as §1
NSCs have an inherent pathotropism toward glioma, which is critical for their utility as cell carriers. Therefore, it is critical that such intrinsic molecular properties and phenotypes of NSCs are maintained during radio-chemotherapy (XRT-TMZ). […] Oct4, a marker of self-renewal for undifferentiated cells, was expressed in 87.6±1.1% of the loaded NSCs. […] The percentage of Oct4 positive cells decreased to 81±2% (*, p<0.05), whereas the MFI was not reduced. […] Because of the high priority of safety when working with the undifferentiated v-myc immortalized HB1.F3-CD stem cell line (Kim et al. 2008), an in vivo safety monitoring experiment was performed to test the effect of XRT-TMZ on loaded HB1.F3-CD cellular transformation. CRAd-S-pk7-loaded NSCs were implanted in the brains of nude mice with no tumor burden. […]

## Cn1nnc2c(C(N)=O)ncn2c1=O [TMZ, temozolomide]
[1]; TMZ 5 mg/kg plus XRT 2 Gy ×5
  increase in survival vs XRT-treated animals: 7 days
[1]; TMZ 5 mg/kg plus XRT 2 Gy ×5 (FIG. 43B)
  median survival: 31 days
[2]
  IC50: 37 µM
[3]
  IC50: 15 µM
